Where two headings read alike, the source gives them in different places.
Assay: Effect of food on plasma pharmacokinetics after single oral dose of SF2a/b (Example 2)
Format: in vivo, human
Details: for AUC(0-t) / AUC(0-inf) / Cmax / half-life / Tmax: both sexes, human, plasma, oral; for Tmax: read-out: tmax, Median
Procedure: The effect of food on the pharmacokinetics (PK) of Compound (a) was assessed in healthy participants after a single oral dose of SF2a/b, described in Example 1, administered at different dose levels in a randomized single dose, 2-period crossover study. The effect of food on the PK of Compound (a) was determined at 3 different dose levels (50 mg, 200 mg, and 800 mg) for a standardized breakfast; at one dose level (800 mg) for a high-fat, high-calorie breakfast; at two dose levels (200 mg and 800 mg) for a low-fat, low-calorie breakfast, as well as for a low-fat, high-calorie breakfast. 124 healthy adult participants (male and female, 18 to 55 years of age) were enrolled in this study. The volunteers were divided in six panels, which were organized as follows: • Panel […]: • Treatment D: A single 800-mg dose (4×200-mg tablets) of Compound (a) SF2b in fasted conditions. • Treatment E: A single 800-mg dose (4×200-mg tablets) of Compound (a) SF2b in fed conditions (standardized breakfast). • Treatments D and E (treatment sequence group 1 [n=8]: DE; treatment sequence group 2 [n=8]: ED). Panel 4, n=14: • Treatment F: A single 200-mg dose (1×200-mg tablet) of Compound (a) SF2b in fasted conditions. • Treatment G: A single 200-mg dose (1×200-mg tablet) of Compound (a) SF2b, in fed conditions (standardized breakfast). • Treatments F and G (treatment sequence group 1 [n=7]: FG; treatment sequence group 2 [n=7]: GF). Panel […]: • Treatment H: A single 50-mg dose (1×50-mg tablet) of Compound (a) SF2a in fasted conditions. • Treatment I: A single 50-mg dose (1×50-mg tablet) of Compound (a) SF2a in fed conditions (standardized breakfast). • Treatments H and I (treatment sequence group 1 [n=7]: HI; treatment sequence group 2 [n=7]: IH). Panel 6 (n=16): • Treatment J: single 800-mg dose (4×200-mg tablets) of Compound (a) administered as SF2b in fasted conditions. • Treatment K: single 800-mg dose (4×200-mg tablets) of Compound (a) administered as SF2b in fed conditions (high-fat, high-calorie breakfast). • Treatments J and K (treatment sequence group 1 [n=8]: JK; treatment sequence group 2 [n=8]: KJ). Panel 7 (n=32): • Treatment L: single 800-mg dose (4×200-mg tablets) of Compound (a) administered as SF2b in fed conditions (low-fat, low-calorie breakfast). • Treatment M: single 800-mg dose (4×200-mg tablets) of Compound (a) administered as SF2b in fed conditions (low-fat, high-calorie breakfast). • Treatment L (n=16) or Treatment M (n=16). Panel 8 (n=32): • Treatment N: single 200-mg dose (1×200-mg tablet) of Compound (a) administered as SF2b in fed conditions (low-fat, low-calorie breakfast). • Treatment O: single 200-mg dose (1×200-mg tablet) of Compound (a) administered as SF2b in fed conditions (low-fat, high-calorie breakfast). • Treatment N (n=16) or Treatment O (n=16). Tablets were administered orally, together with approximately 240 mL of non-carbonated water, in fasted or fed conditions. […] On day 1 of all treatments in each panel, the participants had fasted overnight for at least 10 hours before study drug intake. Intake of water was not allowed from 2 hours before and until 2 hours after study drug intake, except for the water used for study drug intake and breakfast. In case of intake in fed conditions, study drug was administered within 10 minutes after completing a standardized breakfast (Treatments E, G, and I), or a high-fat, high-calorie breakfast (Treatment K), a low-fat, low-calorie breakfast (Treatments L and N), or a low-fat, high-calorie breakfast (Treatments M and O). For treatments E, G, and I a standardized breakfast was served, consisting of (or its equivalent) 4 slices of bread, 2 slices of ham or cheese, butter, jelly, and 1 or 2 cups (up to 355 mL) of decaffeinated coffee or tea with milk and/or sugar, if desired (containing approximately: fat: 21 g, carbohydrates: 67 g, proteins: 19 g; total calories: 533 kcal). For treatment K in a high-fat, high-calorie breakfast was served. […]

[1] = 50 mg SF2a, standardized breakfast vs fasted
[2] = 200 mg SF2b, low-fat, high-calorie vs standardized breakfast
[3] = 200 mg SF2b, low-fat, low-calorie vs standardized breakfast
[4] = 200 mg SF2b, standardized breakfast vs fasted
[5] = 800 mg SF2b, high-fat, high-calorie breakfast vs fasted
[6] = 800 mg SF2b, low-fat, high-calorie vs standardized breakfast
[7] = 800 mg SF2b, low-fat, low-calorie vs standardized breakfast
[8] = 800 mg SF2b, standardized breakfast vs fasted

- AUClast, Geometric Mean Ratio Treatment I vs Treatment H [1]: 120.38%
- AUC∞, Geometric Mean Ratio Treatment I vs Treatment H [1]: 121.24%
- Cmax, Geometric Mean Ratio Treatment I vs Treatment H [1]: 132.83%
- AUClast, Geometric Mean Ratio Treatment O vs Treatment G [2]: 66.47%
- AUC∞, Geometric Mean Ratio Treatment O vs Treatment G [2]: 67.23%
- Cmax, Geometric Mean Ratio Treatment O vs Treatment G [2]: 72.81%
- AUClast, Geometric Mean Ratio Treatment N vs Treatment G [3]: 73.28%
- AUC∞, Geometric Mean Ratio Treatment N vs Treatment G [3]: 73.61%
- Cmax, Geometric Mean Ratio Treatment N vs Treatment G [3]: 72.54%
- AUClast, Geometric Mean Ratio Treatment G vs Treatment F [4]: 168.45%
- AUC∞, Geometric Mean Ratio Treatment G vs Treatment F [4]: 172.00%
- Cmax, Geometric Mean Ratio Treatment G vs Treatment F [4]: 176.07%
- AUClast, Geometric Mean Ratio Treatment K vs Treatment J [5]: 391.52%
- AUC∞, Geometric Mean Ratio Treatment K vs Treatment J [5]: 384.08%
- Cmax, Geometric Mean Ratio Treatment K vs Treatment J [5]: 409.01%
- AUClast, Geometric Mean Ratio Treatment M vs Treatment E [6]: 65.27%
- AUC∞, Geometric Mean Ratio Treatment M vs Treatment E [6]: 69.35%
- Cmax, Geometric Mean Ratio Treatment M vs Treatment E [6]: 60.73%
- AUClast, Geometric Mean Ratio Treatment L vs Treatment E [7]: 60.37%
- AUC∞, Geometric Mean Ratio Treatment L vs Treatment E [7]: 64.71%
- Cmax, Geometric Mean Ratio Treatment L vs Treatment E [7]: 60.56%
- AUClast, Geometric Mean Ratio Treatment E vs Treatment D [8]: 241.23%
- AUC∞, Geometric Mean Ratio Treatment E vs Treatment D [8]: 238.11%
- Cmax, Geometric Mean Ratio Treatment E vs Treatment D [8]: 277.77%
- relative bioavailability for AUClast, standardized breakfast compared to fasted (SF2a/b, 50 mg dose): 124%
- relative bioavailability for Cmax, standardized breakfast compared to fasted (SF2a/b, 50 mg dose): 133%
- relative bioavailability for AUClast, standardized breakfast compared to fasted (SF2a/b, 800 mg dose): 243%
- relative bioavailability for Cmax, standardized breakfast compared to fasted (SF2a/b, 800 mg dose): 278%
- exposure, high-fat, high-calorie breakfast compared to fasted conditions (SF2a/b, single dose 800 mg): approximately 4 times higher
- tlast, Median (Treatment D: single 800 mg (SF2b), fasted): 840.00 h
- tlast, Median (Treatment E: single 800 mg (SF2b), fed, standardized breakfast): 840.00 h
- tlast, Median (Treatment F: single 200 mg (SF2b), fasted): 840.00 h
- tlast, Median (Treatment G: single 200 mg (SF2b), fed, standardized breakfast): 840.00 h
- tlast, Median (Treatment H: single 50 mg (SF2a), fasted): 840.00 h
- tlast, Median (Treatment I: single 50 mg (SF2a), fed, standardized breakfast): 840.00 h
- AUC(0-t) (50 mg, 50 mg SF2a, fasted, linear mixed effects model (Table 5C), read-out: AUClast, Geometric Mean Treatment H): 17900 ng·h/mL
- AUC(0-inf) (50 mg, 50 mg SF2a, fasted, linear mixed effects model (Table 5C), read-out: AUC∞, Geometric Mean Treatment H): 18700 ng·h/mL
- Cmax (50 mg, 50 mg SF2a, fasted, linear mixed effects model (Table 5C), read-out: Cmax, Geometric Mean Treatment H): 193 ng/mL
- AUC(0-t) (50 mg, 50 mg SF2a, standardized breakfast, linear mixed effects model (Table 5C), read-out: AUClast, Geometric Mean Treatment I): 21600 ng·h/mL
- AUC(0-inf) (50 mg, 50 mg SF2a, standardized breakfast, linear mixed effects model (Table 5C), read-out: AUC∞, Geometric Mean Treatment I): 22700 ng·h/mL
- Cmax (50 mg, 50 mg SF2a, standardized breakfast, linear mixed effects model (Table 5C), read-out: Cmax, Geometric Mean Treatment I): 257 ng/mL
- AUC(0-t) (50 mg, Treatment H: single 50 mg (SF2a), fasted, read-out: AUClast, Geo. Mean): 18000 ng·h/mL
- AUC(0-t) (50 mg, Treatment H: single 50 mg (SF2a), fasted, read-out: AUClast, Mean): 19900 ng·h/mL
- AUC(0-t) (50 mg, Treatment H: single 50 mg (SF2a), fasted, read-out: AUClast, Median): 18500 ng·h/mL
- AUC(0-inf) (50 mg, Treatment H: single 50 mg (SF2a), fasted, read-out: AUC∞, Geo. Mean): 18800 ng·h/mL
- AUC(0-inf) (50 mg, Treatment H: single 50 mg (SF2a), fasted, read-out: AUC∞, Mean): 21000 ng·h/mL
- AUC(0-inf) (50 mg, Treatment H: single 50 mg (SF2a), fasted, read-out: AUC∞, Median): 18800 ng·h/mL
- Cmax (50 mg, Treatment H: single 50 mg (SF2a), fasted, read-out: Cmax, Geo. Mean): 195 ng/mL
- Cmax (50 mg, Treatment H: single 50 mg (SF2a), fasted, read-out: Cmax, Mean): 214 ng/mL
- Cmax (50 mg, Treatment H: single 50 mg (SF2a), fasted, read-out: Cmax, Median): 208 ng/mL
- half-life (50 mg, Treatment H: single 50 mg (SF2a), fasted, read-out: t1/2, term, Geo. Mean (converted)): 167 h
- half-life (50 mg, Treatment H: single 50 mg (SF2a), fasted, read-out: t1/2, term, Mean (converted)): 176 h
- half-life (50 mg, Treatment H: single 50 mg (SF2a), fasted, read-out: t1/2, term, Median (converted)): 162 h
- Tmax (50 mg, Treatment H: single 50 mg (SF2a), fasted): 7 h
- AUC(0-t) (50 mg, Treatment I: single 50 mg (SF2a), fed, standardized breakfast, read-out: AUClast, Geo. Mean): 21100 ng·h/mL
- AUC(0-t) (50 mg, Treatment I: single 50 mg (SF2a), fed, standardized breakfast, read-out: AUClast, Mean): 22900 ng·h/mL
- AUC(0-t) (50 mg, Treatment I: single 50 mg (SF2a), fed, standardized breakfast, read-out: AUClast, Median): 20400 ng·h/mL
- AUC(0-inf) (50 mg, Treatment I: single 50 mg (SF2a), fed, standardized breakfast, read-out: AUC∞, Geo. Mean): 22100 ng·h/mL
- AUC(0-inf) (50 mg, Treatment I: single 50 mg (SF2a), fed, standardized breakfast, read-out: AUC∞, Mean): 24600 ng·h/mL
- AUC(0-inf) (50 mg, Treatment I: single 50 mg (SF2a), fed, standardized breakfast, read-out: AUC∞, Median): 20800 ng·h/mL
- Cmax (50 mg, Treatment I: single 50 mg (SF2a), fed, standardized breakfast, read-out: Cmax, Geo. Mean): 257 ng/mL
- Cmax (50 mg, Treatment I: single 50 mg (SF2a), fed, standardized breakfast, read-out: Cmax, Mean): 288 ng/mL
- Cmax (50 mg, Treatment I: single 50 mg (SF2a), fed, standardized breakfast, read-out: Cmax, Median): 267 ng/mL
- half-life (50 mg, Treatment I: single 50 mg (SF2a), fed, standardized breakfast, read-out: t1/2, term, Geo. Mean (converted)): 174 h
- half-life (50 mg, Treatment I: single 50 mg (SF2a), fed, standardized breakfast, read-out: t1/2, term, Mean (converted)): 185 h
- half-life (50 mg, Treatment I: single 50 mg (SF2a), fed, standardized breakfast, read-out: t1/2, term, Median (converted)): 159 h
- Tmax (50 mg, Treatment I: single 50 mg (SF2a), fed, standardized breakfast): 6.5 h
- AUC(0-t) (200 mg, 200 mg SF2b, fasted, linear mixed effects model (Table 5B), read-out: AUClast, Geometric Mean Treatment F): 60500 ng·h/mL
- AUC(0-inf) (200 mg, 200 mg SF2b, fasted, linear mixed effects model (Table 5B), read-out: AUC∞, Geometric Mean Treatment F): 60500 ng·h/mL
- Cmax (200 mg, 200 mg SF2b, fasted, linear mixed effects model (Table 5B), read-out: Cmax, Geometric Mean Treatment F): 559 ng/mL
- AUC(0-t) (200 mg, 200 mg SF2b, fed, low-fat, high-calorie breakfast, read-out: AUClast, Geometric LS Means Treatment O): 65200 ng·h/mL
- AUC(0-inf) (200 mg, 200 mg SF2b, fed, low-fat, high-calorie breakfast, read-out: AUC∞, Geometric LS Means Treatment O): 69300 ng·h/mL
- Cmax (200 mg, 200 mg SF2b, fed, low-fat, high-calorie breakfast, read-out: Cmax, Geometric LS Means Treatment O): 700 ng/mL
- AUC(0-t) (200 mg, 200 mg SF2b, fed, low-fat, low-calorie breakfast, read-out: AUClast, Geometric LS Means Treatment N): 71900 ng·h/mL
- AUC(0-inf) (200 mg, 200 mg SF2b, fed, low-fat, low-calorie breakfast, read-out: AUC∞, Geometric LS Means Treatment N): 75800 ng·h/mL
- Cmax (200 mg, 200 mg SF2b, fed, low-fat, low-calorie breakfast, read-out: Cmax, Geometric LS Means Treatment N): 697 ng/mL
- AUC(0-t) (200 mg, 200 mg SF2b, fed, standardized breakfast (Tables 5E, 5G), read-out: AUClast, Geometric LS Means Treatment G): 98200 ng·h/mL
Structure (SMILES): COc1cc(NC(C(=O)c2c[nH]c3ccc(OC(F)(F)F)cc23)c2ccc(Cl)cc2OC)cc(S(C)(=O)=O)c1 (centres unmarked) [Compound (a)]

From patent publication US20250281457A1, “TREATMENT OR PREVENTION OF DENGUE VIRAL INFECTION” (Janssen Pharmaceuticals, Inc., priority 2022, published 2025)
